# Laboratory results: patent publication US20100159496A1, “EVALUATION METHOD FOR PHOTOSYNTHESIS SAMPLE, EVALUATION SYSTEM FOR PHOTOSYNTHESIS SAMPLE, AND EVALUATION PROGRAM FOR PHOTOSYNTHESIS SAMPLE” (HAMAMATSU PHOTONICS K.K., priority 2006, published 2010)
# System: green algae
# Assay: Delayed luminescence of green algae in different redox states (first/second excitation light, waiting time), integration values
# Type: cell-based, Pseudokircheneriella subcapitata
# Conditions: for percentage (% oQ) of the oxidized plastoquinone: DBMIB 322 μg/L (FIG. 43)
# Description: In determining the relationship between the waiting time and the temporal variation of delayed luminescence, first, white light of 500 μmol·m−2·s−1 was illuminated for 10 seconds onto the measurement sample as the first excitation light for saturating photosynthetic electron transport (first illumination condition). Thereafter, a step of not illuminating light onto the measurement sample (referred to hereinafter as “waiting”) was provided and then red light of 50 μmol·m−2·s−1 was illuminated for 2 seconds as the second excitation light. The second excitation light can make delayed luminescence be emitted while hardly changing the redox state of the photosynthetic sample. Such a process is performed repeatedly with the waiting being changed to 0, 2, 10, 30, and 60 seconds. In addition, measurement is also made for a case where the illumination of the first excitation light and waiting are not executed and just the illumination of the second excitation light is performed, that is, for the case where the photosynthetic electron transport is not saturated.
# In the following, a case of computing an integration value for each of an integration range (measurement time period) of 0.1 to 0.5 seconds of time after excitation, an integration range of 0.6 to 10 seconds after excitation, and an integration range of 10.1 seconds to 50 seconds after excitation shall be described. Setting of the integration ranges is not restricted to the above. The number of integration ranges may any number as long as it is no less than 1. In a case where a plurality of integration ranges are set up, the respective integration ranges may be made equal or not equal in time width. Furthermore, the integration ranges may not only be mutually set apart by a predetermined time as in the present embodiment but integration ranges may be set so as to be adjacent each other (for example, an integration range of 0.1 to 0.5 seconds of time after excitation and an integration range of 0.5 seconds to 10 seconds of time after excitation may be set up) and integration ranges may be set so as to overlap with each other (for example, an integration range of 0.1 to 0.5 seconds of time after excitation and an integration range of 0.4 seconds to 10 seconds of time after excitation may be set up).
# In each graph of FIG. 29, the abscissa expresses the measurement condition and the ordinate expresses the integration value (counts) of the delayed luminescence intensity. In the following, the integration value in the integration range of 0.1 to 0.5 seconds of time after excitation, the integration value in the integration range of 0.6 to 10 seconds after excitation, and the integration value in the integration range of 10.1 seconds to 50 seconds after excitation shall be referred to respectively as integration value 1, integration value 2, and integration value 3. FIGS. 29A, 29B, and 29C are graphs respectively of the integration value 1, integration value 2, and integration value 3.
# First, a method for computing an evaluation value for evaluating the electron accumulation state of the PSII of the photosynthetic sample shall be described. As one such type of evaluation value, there is, for example, a PSII electron accumulation change (en), which indicates how the electron accumulation in the PSII has changed. This value ell can be determined as: (integration value 1 of the evaluation sample)/(integration value 1 of the standard sample)×100. The PSII electron accumulation change (eII) can be computed for the respective conditions of non-saturation, 0-second waiting time, 10-second waiting time, and 60-second waiting time.
# As mentioned above, the transient increase of the integration value 1 in the 0-second waiting time reflects increase of the electron accumulation in the PSII due to the takeout of electrons from the PSII becoming rate-limiting. […]
# [1] = all conditions (non-saturation, 0-, 10-, 60-second waiting time), DCMU 12 ug/L, Ant-A 0.55 mg/L
Compound,"integration value 1 (0.1 to 0.5 seconds after excitation) compared with standard sample (0-second waiting time, DCMU 12 ug/L)","PSII electron takeout change (vII) (DCMU 12 ug/L, tII of evaluation sample/tII of standard sample×100 (FIG. 42))",integration value 2 (0.6 to 10 seconds after excitation) compared with standard sample [1],integration value 3 (10.1 to 50 seconds after excitation) compared with standard sample [1],"PSII electron accumulation change (eII) (non-saturation state, DCMU 12 ug/L, integration value 1 of evaluation sample/standard sample×100 (FIG. 42))","integration value 1 (0.1 to 0.5 seconds after excitation) compared with standard sample (non-saturation, 10-second and 60-second waiting time, DCMU 12 ug/L)","integration value 1 (0.1 to 0.5 seconds after excitation) (10-second waiting time, Ant-A 0.55 mg/L)","cyclic electron transport (cI) from the PSI (10-second waiting time, Ant-A 0.55 mg/L (FIG. 44))","PSI electron accumulation change (eI) (non-saturation case, Ant-A 0.55 mg/L, integration value 3 of evaluation sample/standard sample×100 (FIG. 44))","integration value 1 (0.1 to 0.5 seconds after excitation) compared with standard sample (non-saturation, 0-second and 60-second waiting time, Ant-A 0.55 mg/L)","integration value 2 (0.6 to 10 seconds after excitation) compared with standard sample (0-second waiting time, DBMIB 322 μg/L)",percentage (% oQ) of the oxidized plastoquinone (10-second waiting time),"increase (increment) of integration value 3 at the 10-second waiting time compared with standard sample (10-second waiting time, DBMIB 322 μg/L, Ant-A 0.55 mg/L)",percentage (% oQ) of the oxidized plastoquinone (60-second waiting time),"change (vQ) of redox reaction magnitude sQ (DBMIB 322 μg/L, sQ of evaluation sample/sQ of standard sample (FIG. 43))","integration value 1 (0.1 to 0.5 seconds after excitation) compared with standard sample (all conditions, DBMIB 322 μg/L)","integration value 3 (10.1 to 50 seconds after excitation) compared with standard sample (non-saturation, 0-second and 60-second waiting time, DBMIB 322 μg/L)","integration value 2 (0.6 to 10 seconds after excitation) compared with standard sample (non-saturation, 10-second and 60-second waiting time, DBMIB 322 μg/L)"
"CN(C)C(=O)Nc1ccc(Cl)c(Cl)c1 [DCMU, 3-(3,4-dichlorophenyl)-1,1-dimethyl-urea]",a significant difference was not seen,negative,less than those of the standard sample,less than those of the standard sample,188,nearly twice the values of the standard sample,,,,,,,,,,,,
"CCCCCC[C@H]1C(=O)O[C@H](C)[C@H](NC(=O)c2cccc(NC=O)c2O)C(=O)O[C@@H](C)[C@@H]1OC(=O)CC(C)C [Ant-A, Antimycin A]",,,less than those of the standard sample,less than those of the standard sample,,,increased in the same manner as in the 0-second waiting time case,−12,89,a large difference was not seen,,,,,,,,
"CC1=C(Br)C(=O)C(C(C)C)=C(Br)C1=O [DBMIB, 2,5-dibromo-6-isopropyl-3-methyl-1,4-benzoquinone]",,,,,,,,,,,a large difference is not seen,4,lower than that of the standard sample,22,30,greater than those of the standard sample,a large difference was not seen,lower than that of the standard sample
